Measurements: patent US20050004079A1, “Pharmaceutical compositions for intranasal administration of [2-(8,9-dioxo-2,6-diazabicyclo[5.2.0]non-1(7)-en-2-yl)alkyl] phosphonic acid and derivatives and methods of use thereof” (Wyeth, priority 2003, published 2005)
Read-outs that look alike come from different tables or passages of the source.

Assays:
[1] = tested on: Prostaglandin E2-induced thermal hypersensitivity; experiment: In vivo efficacy in rats: Prostaglandin E2-induced thermal hypersensitivity (warm-water tail withdrawal); set-up: species or system Spraque-Dawley rats; conditions: for % MPE (reversal of PGE2-induced thermal hypersensitivity): rat, 30 min before PGE2
Protocol: Subjects: Individually housed Spraque-Dawley rats had free access to rat chow and water. A 12-h light/12-h dark cycle was in effect (lights on from 6:00 am to 6:00 pm). Animal maintenance and research were conducted in accordance with the guidelines provided by the National Institutes of Health Committee on Laboratory Animal Resources. These subjects were used in the tests below.
Procedure: The terminal 10 cm of the tail was placed into a thermos bottle containing water warmed to 38, 42, 46, 50 or 54° C. The latency in seconds for the animal to remove the tail from the water was used as a measure of nociception.
Following the assessment of baseline thermal sensitivity, thermal hypersensitivity was produced by a 50 μL injection of 0.1 mg prostaglandin E2 (PGE2) into the terminal 1 cm of the tail. Temperature-effect curves were generated before (baseline) and after (15, 30, 60, 90 and 120 min) the PGE2 injection.
The ability of compounds to reverse PGE2-induced thermal hypersensitivity was assessed using a single dose time-course procedure. Under this procedure, a single dose of the compound to be tested was administered intraperitoneally (IP), orally (PO) or intranasally (IN) 30 min before the injection of PGE2. […] sensitivity was assessed 30 min after PGE2 injection. For the IP and PO administration, compound was administered in a volume of 1 ml/kg with the dose administered calculated as mg/kg. For IN administration, rats were lightly anesthetized with 3.5% halothane in O2 and compound or vehicle was administered in a volume of 25 μL solution dropped into each nostril with the dose administered in absolute mg.
Data Analysis: The temperature that produced a half-maximal increase in the tail-withdrawal latency (i.e., T10) was calculated from each temperature-effect curve. The T10 was determined by interpolation from a line drawn between the point above and the point below 10 sec on the temperature-effect curve. For these studies, thermal hypersensitivity was defined as a leftward shift in the temperature-effect curve and a decrease in the T10 value. Reversal of thermal hypersensitivity was defined as a return to baseline of the temperature-effect curve and the T10 value and was calculated according to the following equation: [formula] in which T10^drug+PGE2 is the T10 after a drug in combination with PGE2, T10^PGE2 is the T10 after PGE2 alone, and T10^baseline is the T10 under control conditions. A % MPE value of 100 indicates a complete return to the baseline thermal sensitivity observed without the PGE2 injection.

[2] = monkey, in vivo, iv, 1.1 mg/kg
in vivo = conditions: monkey, po

SMILES: O=c1c2c(c1=O)N(CCP(=O)(O)O)CCCN2 [Compound A, [2-(8,9-dioxo-2,6-diazabicyclo[5.2.0]non-1(7)-en-2-yl)ethyl]phosphonic acid]
- in vivo efficacy of intranasal and intraperitoneal administration compared with oral administration ([1]; rat PGE2-induced thermal hypersensitivity model, intranasal and intraperitoneal found similar): ten folds higher
- % MPE (reversal of PGE2-induced thermal hypersensitivity) ([1]; IP, 1 mg/kg): −7%
- % MPE (reversal of PGE2-induced thermal hypersensitivity) ([1]; IP, 3 mg/kg): 66%
- % MPE (reversal of PGE2-induced thermal hypersensitivity) ([1]; IP, 10 mg/kg, 10 mg/kg): 79%
- % MPE (reversal of PGE2-induced thermal hypersensitivity) ([1]; PO, 10 mg/kg): 5%
- % MPE (reversal of PGE2-induced thermal hypersensitivity) ([1]; PO, 30 mg/kg): 23%
- % MPE (reversal of PGE2-induced thermal hypersensitivity) ([1]; PO, 100 mg/kg, 100 mg/kg): 87%
- AUC [2]: 1.67 ughr/ml
- AUC (in vivo; 20 mg/kg): 1740 ng·h/mL
- Cmax (in vivo; 20 mg/kg): 147 ng/mL
- bioavailability (in vivo; 100 mg/kg): ~2.5%
